According to patent publication US20110105397A1, “METHOD FOR TREATING HEART FAILURE WITH STRESSCOPIN-LIKE PEPTIDES” (priority 2009, published 2011):
pKi: −log10 of the molar value. Each block holds one molecule with its values, some of them ahead of it.

Tests used:
[1] = system: subjects with heart failure; assay: Human hemodynamics (impedance cardiography), subjects with stable heart failure, 7.5-hour ascending dose IV infusion; assay type: in vivo; conditions: for Heart Rate CFB / Heart Rate Percent CFB: placebo-subtracted; for Cardiac Index CFB / Cardiac Index Percent CFB / Cardiac Output CFB / Cardiac Output Percent CFB / Diastolic Blood Pressure CFB / Diastolic Blood Pressure Percent CFB / Stroke Volume CFB / Stroke Volume Percent CFB / Systolic Blood Pressure CFB / Systolic Blood Pressure Percent CFB: post hoc analysis
Protocol: Efficacy was based on the pharmacodynamic evaluation of hemodynamics, which was monitored using the noninvasive technique of impedance cardiography. Heart rate values were collected by impedance cardiography measurements. It was noted that the heart rate of subjects receiving placebo were elevated on the day of their infusions, at baseline before the infusion, and for the first 3 to 4 hours after the infusions were started (FIG. 17). Based on this observation, it appeared that there was a potential effect of period on the observed heart rate.
A post hoc graphical analysis of the hemodynamic data was done to adjust for the elevated baseline values seen just before onset of the infusion, to obtain the best estimate of each hemodynamic parameter, and to correct for the effect of period. A post hoc graphic presentation was prepared from the complete (high frequency) dataset. This dataset contains the raw data that were further processed by the vendor (ie, CardioDynamics) and reported only at specific time points.
In this post hoc analysis an extended baseline was used for each value that included all values recorded before initiation of the infusion. Then an average value for each parameter was obtained from the last 30 minutes of each 2.5 hour infusion and was used as the effect in that period of the infused dose. Each value was modified for the effect of period of infusion by subtracting the mean change from baseline seen in placebo subjects dosed in that same period (placebo subtraction). The dose effect was estimated by averaging the values from all subjects who received the same dose after the placebo subtraction.
As may have occurred in healthy subjects, subjects with stable heart failure may have experienced anxiety before the start of the infusion that contributed to this increase in baseline heart rate values.

CRHR1 = target: T1, CRHR1 (Homo sapiens, UniProt P34998); assay: CRHR1 radioligand binding, [125I]-(Tyr0)-sauvagine; parameters: host or cells: cell membranes
T1 sequence (P34998 24-415): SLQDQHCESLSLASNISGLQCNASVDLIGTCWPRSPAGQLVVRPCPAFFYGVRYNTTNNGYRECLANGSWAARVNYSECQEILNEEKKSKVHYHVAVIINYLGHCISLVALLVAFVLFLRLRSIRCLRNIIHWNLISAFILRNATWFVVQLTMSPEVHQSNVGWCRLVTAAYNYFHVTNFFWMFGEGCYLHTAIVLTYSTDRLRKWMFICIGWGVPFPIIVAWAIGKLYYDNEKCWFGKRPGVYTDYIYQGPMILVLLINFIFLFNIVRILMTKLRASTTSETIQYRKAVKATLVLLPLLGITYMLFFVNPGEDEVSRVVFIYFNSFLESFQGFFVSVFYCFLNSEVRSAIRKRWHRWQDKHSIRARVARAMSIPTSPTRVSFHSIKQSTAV
Source text: The solution was then homogenized with a Polytron tissue grinder at a setting of 10 and 7×3 s (Brinkmann Instruments, Westbury, N.Y.). […] The bound radioactivity was separated by filtration using a Multiscreen Resist manifold (Millipore Corp., Billerica, Mass., U.S.A). The filters were washed three times with ice-cold PBS at pH 7.5 and radioactivity retained on the filters was quantified by its liquid scintillation measured by a TopCount counter (Packard BioScience, Boston, Mass., U.S.A). All experiments were performed in triplicate.

Molecule: H-TKFTLSLDVPTNIMNLLFNIAKAKNLRAQAAANAHLMAQI-NH2 [SEQ ID NO: 1, TKFTLSLDVPTNIMNLLFNIAKAKNLRAQAAANAHLMAQI-NH2]
- increase in heart rate ([1]; highest dose of 54 ng/kg/min): ~10 bpm
- Heart Rate CFB ([1]; infusion rate 0.3 ng/kg/min): 1.5 bpm
- Heart Rate Percent CFB ([1]; infusion rate 0.3 ng/kg/min): 3.0%
- Cardiac Index CFB ([1]; infusion rate 0.3 ng/kg/min): 0.3 L/min/m^2
- Cardiac Index Percent CFB ([1]; infusion rate 0.3 ng/kg/min): 13.9%
- Cardiac Output CFB ([1]; infusion rate 0.3 ng/kg/min): 0.7 L/min
- Cardiac Output Percent CFB ([1]; infusion rate 0.3 ng/kg/min): 14.2%
- Diastolic Blood Pressure CFB ([1]; infusion rate 0.3 ng/kg/min): −8.6 mm Hg
- Diastolic Blood Pressure Percent CFB ([1]; infusion rate 0.3 ng/kg/min): −12.6%
- Stroke Volume CFB ([1]; infusion rate 0.3 ng/kg/min): 7.6 mL
- Stroke Volume Percent CFB ([1]; infusion rate 0.3 ng/kg/min): 9.5%
- Systolic Blood Pressure CFB ([1]; infusion rate 0.3 ng/kg/min): −18.2 mm Hg
- Systolic Blood Pressure Percent CFB ([1]; infusion rate 0.3 ng/kg/min): −15.8%
- Heart Rate CFB ([1]; infusion rate 1 ng/kg/min): −0.4 bpm
- Heart Rate Percent CFB ([1]; infusion rate 1 ng/kg/min): 0.2%
- Cardiac Index CFB ([1]; infusion rate 1 ng/kg/min): 0.2 L/min/m^2
- Cardiac Index Percent CFB ([1]; infusion rate 1 ng/kg/min): 10.1%
- Cardiac Output CFB ([1]; infusion rate 1 ng/kg/min): 0.5 L/min
- Cardiac Output Percent CFB ([1]; infusion rate 1 ng/kg/min): 10.2%
- Diastolic Blood Pressure CFB ([1]; infusion rate 1 ng/kg/min): −6.1 mm Hg
- Diastolic Blood Pressure Percent CFB ([1]; infusion rate 1 ng/kg/min): −9.1%
- Stroke Volume CFB ([1]; infusion rate 1 ng/kg/min): 6.6 mL
- Stroke Volume Percent CFB ([1]; infusion rate 1 ng/kg/min): 9.1%
- Systolic Blood Pressure CFB ([1]; infusion rate 1 ng/kg/min): −4.9 mm Hg
- Systolic Blood Pressure Percent CFB ([1]; infusion rate 1 ng/kg/min): −4.7%
- Heart Rate CFB ([1]; infusion rate 3 ng/kg/min): −1.3 bpm
- Heart Rate Percent CFB ([1]; infusion rate 3 ng/kg/min): −0.9%
- Cardiac Index CFB ([1]; infusion rate 3 ng/kg/min): 0.1 L/min/m^2
- Cardiac Index Percent CFB ([1]; infusion rate 3 ng/kg/min): 6.9%
- Cardiac Output CFB ([1]; infusion rate 3 ng/kg/min): 0.3 L/min
- Cardiac Output Percent CFB ([1]; infusion rate 3 ng/kg/min): 7.0%
- Diastolic Blood Pressure CFB ([1]; infusion rate 3 ng/kg/min): −8.6 mm Hg
- Diastolic Blood Pressure Percent CFB ([1]; infusion rate 3 ng/kg/min): −13.0%
- Stroke Volume CFB ([1]; infusion rate 3 ng/kg/min): 4.8 mL
- Stroke Volume Percent CFB ([1]; infusion rate 3 ng/kg/min): 7.3%
- Systolic Blood Pressure CFB ([1]; infusion rate 3 ng/kg/min): −9.5 mm Hg
- Systolic Blood Pressure Percent CFB ([1]; infusion rate 3 ng/kg/min): −9.2%
- Heart Rate CFB ([1]; infusion rate 9 ng/kg/min): 0.2 bpm
- Heart Rate Percent CFB ([1]; infusion rate 9 ng/kg/min): 1.5%
- Cardiac Index CFB ([1]; infusion rate 9 ng/kg/min): 0.2 L/min/m^2
- Cardiac Index Percent CFB ([1]; infusion rate 9 ng/kg/min): 9.1%
- Cardiac Output CFB ([1]; infusion rate 9 ng/kg/min): 0.5 L/min
- Cardiac Output Percent CFB ([1]; infusion rate 9 ng/kg/min): 9.2%
- Diastolic Blood Pressure CFB ([1]; infusion rate 9 ng/kg/min): −8.6 mm Hg
- Diastolic Blood Pressure Percent CFB ([1]; infusion rate 9 ng/kg/min): −11.9%
- Stroke Volume CFB ([1]; infusion rate 9 ng/kg/min): 5.9 mL
- Stroke Volume Percent CFB ([1]; infusion rate 9 ng/kg/min): 7.6%
- Systolic Blood Pressure CFB ([1]; infusion rate 9 ng/kg/min): −10.6 mm Hg
- Systolic Blood Pressure Percent CFB ([1]; infusion rate 9 ng/kg/min): −9.4%
- Heart Rate CFB ([1]; infusion rate 18 ng/kg/min): 0.8 bpm
- Heart Rate Percent CFB ([1]; infusion rate 18 ng/kg/min): 2.5%
- Cardiac Index CFB ([1]; infusion rate 18 ng/kg/min): 0.4 L/min/m^2
- Cardiac Index Percent CFB ([1]; infusion rate 18 ng/kg/min): 14.5%
- Cardiac Output CFB ([1]; infusion rate 18 ng/kg/min): 0.8 L/min
- Cardiac Output Percent CFB ([1]; infusion rate 18 ng/kg/min): 15.5%
- Diastolic Blood Pressure CFB ([1]; infusion rate 18 ng/kg/min): −7.6 mm Hg
- Diastolic Blood Pressure Percent CFB ([1]; infusion rate 18 ng/kg/min): −11.4%
- Stroke Volume CFB ([1]; infusion rate 18 ng/kg/min): 9.3 mL
- Stroke Volume Percent CFB ([1]; infusion rate 18 ng/kg/min): 12.9%
- Systolic Blood Pressure CFB ([1]; infusion rate 18 ng/kg/min): −8.8 mm Hg
- Systolic Blood Pressure Percent CFB ([1]; infusion rate 18 ng/kg/min): −8.7%
- Heart Rate CFB ([1]; infusion rate 36 ng/kg/min): 3.6 bpm
- Heart Rate Percent CFB ([1]; infusion rate 36 ng/kg/min): 6.3%
- Cardiac Index CFB ([1]; infusion rate 36 ng/kg/min): 0.3 L/min/m^2
- Cardiac Index Percent CFB ([1]; infusion rate 36 ng/kg/min): 12.4%
- Cardiac Output CFB ([1]; infusion rate 36 ng/kg/min): 0.7 L/min
- Cardiac Output Percent CFB ([1]; infusion rate 36 ng/kg/min): 12.4%
- Diastolic Blood Pressure CFB ([1]; infusion rate 36 ng/kg/min): −12.5 mm Hg
- Diastolic Blood Pressure Percent CFB ([1]; infusion rate 36 ng/kg/min): −18.5%
- Stroke Volume CFB ([1]; infusion rate 36 ng/kg/min): 4.2 mL
- Stroke Volume Percent CFB ([1]; infusion rate 36 ng/kg/min): 6.0%
- Systolic Blood Pressure CFB ([1]; infusion rate 36 ng/kg/min): −16.4 mm Hg
- Systolic Blood Pressure Percent CFB ([1]; infusion rate 36 ng/kg/min): −14.9%
- Heart Rate CFB ([1]; infusion rate 45 ng/kg/min): 3.8 bpm
- Heart Rate Percent CFB ([1]; infusion rate 45 ng/kg/min): 7.5%
- Cardiac Index CFB ([1]; infusion rate 45 ng/kg/min): 0.3 L/min/m^2
- Cardiac Index Percent CFB ([1]; infusion rate 45 ng/kg/min): 12.6%
- Cardiac Output CFB ([1]; infusion rate 45 ng/kg/min): 0.7 L/min
- Cardiac Output Percent CFB ([1]; infusion rate 45 ng/kg/min): 13.3%
- Diastolic Blood Pressure CFB ([1]; infusion rate 45 ng/kg/min): −12.6 mm Hg
- Diastolic Blood Pressure Percent CFB ([1]; infusion rate 45 ng/kg/min): −19.0%
- Stroke Volume CFB ([1]; infusion rate 45 ng/kg/min): 3.3 mL
- Stroke Volume Percent CFB ([1]; infusion rate 45 ng/kg/min): 5.4%
- Systolic Blood Pressure CFB ([1]; infusion rate 45 ng/kg/min): −12.0 mm Hg
- Systolic Blood Pressure Percent CFB ([1]; infusion rate 45 ng/kg/min): −11.7%
- Heart Rate CFB ([1]; infusion rate 54 ng/kg/min): 7.0 bpm
- Heart Rate Percent CFB ([1]; infusion rate 54 ng/kg/min): 11.5%
- Cardiac Index CFB ([1]; infusion rate 54 ng/kg/min): 0.2 L/min/m^2
- Cardiac Index Percent CFB ([1]; infusion rate 54 ng/kg/min): 7.5%
- Cardiac Output CFB ([1]; infusion rate 54 ng/kg/min): 0.4 L/min
- Cardiac Output Percent CFB ([1]; infusion rate 54 ng/kg/min): 11.5%
- Diastolic Blood Pressure CFB ([1]; infusion rate 54 ng/kg/min): −14.4 mm Hg
- Diastolic Blood Pressure Percent CFB ([1]; infusion rate 54 ng/kg/min): −23.9%
- Stroke Volume CFB ([1]; infusion rate 54 ng/kg/min): -2.5 mL
- Stroke Volume Percent CFB ([1]; infusion rate 54 ng/kg/min): 0.5%
- Systolic Blood Pressure CFB ([1]; infusion rate 54 ng/kg/min): −18.8 mm Hg
- Systolic Blood Pressure Percent CFB ([1]; infusion rate 54 ng/kg/min): −21.4%
- pKi (CRHR1): 4.60
- nH (CRHR1): 1.16 ± 0.65

- nH (CRHR1): 0.91 ± 0.27
Molecule: CC[C@H](C)[C@H](NC(=O)[C@H](CO)NC(=O)[C@H](CC(C)C)NC(=O)[C@@H]1CCCN1C(=O)[C@@H]1CCCN1C(=O)[C@H](CC(=O)O)NC(=O)[C@@H](N)CC(=O)O)C(=O)N[C@@H](CC(=O)O)C(=O)N[C@@H](CC(C)C)C(=O)N[C@H](C(=O)N[C@@H](Cc1ccccc1)C(=O)N[C@@H](Cc1c[nH]cn1)C(=O)N[C@@H](CC(C)C)C(=O)N[C@@H](CC(C)C)C(=O)N[C@@H](CCCNC(=N)N)C(=O)N[C@H](C(=O)N[C@@H](CC(C)C)C(=O)N[C@@H](CC(C)C)C(=O)N[C@@H](CCC(=O)O)C(=O)N[C@@H](CC(C)C)C(=O)N[C@@H](C)C(=O)N[C@@H](CCCNC(=N)N)C(=O)N[C@H](C(=O)N[C@@H](CCC(N)=O)C(=O)N[C@@H](CO)C(=O)N[C@@H](CCC(N)=O)C(=O)N[C@@H](CCCNC(=N)N)C(=O)N[C@@H](CCC(=O)O)C(=O)N[C@@H](CCCNC(=N)N)C(=O)N[C@@H](C)C(=O)N[C@@H](CCC(=O)O)C(=O)N[C@@H](CCC(N)=O)C(=O)N[C@@H](CC(N)=O)C(=O)N[C@@H](CCCNC(=N)N)C(=O)N[C@H](C(=O)N[C@H](C(=O)N[C@@H](Cc1ccccc1)C(=O)N[C@@H](CC(=O)O)C(=O)N[C@@H](CO)C(=O)N[C@H](C(N)=O)C(C)C)[C@@H](C)CC)[C@@H](C)CC)[C@@H](C)O)[C@@H](C)O)[C@@H](C)O [SEQ ID NO: 114, DDPPLSIDLTFHLLRTLLELARTQSQRERAEQNRIIFDSV-NH2]
